These results are taken from patent US7981903B2, “2-[2-{phenylamino}-1H-pyrrolo[2,3-D]pyrimidin-4-yl)amino] benzamide derivatives as IGF-1R inhibitors for the treatment of cancer” (GlaxoSmithKline LLC, priority 2007, dated 2011).

As a reminder, the IC50 is the point on the concentration scale where inhibition reaches its midpoint. Low values mean inhibition by little substance, high ones a need for much substance.

Values joined by “and” are separate entries in the source; they are usually repeats but may differ in a detail not shown here. Equal values may be shown once.

One assay addresses ALK (Homo sapiens, UniProt Q9UM73). Kind of assay: ALK enzyme assay (HTRF). Format: biochemical. The conditions noted are these: 0.25 nM ALK, 15.0 μM ATP, values given as pIC50 category. In short, it runs like this:
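Final compound range 0.00017 to 10 μM (twelve 1:3 dilutions). Kinase reaction with ATP and biotinylated synthetic peptide runs 120 min at 20° C, stopped with EDTA; phosphotyrosine detected by HTRF after 60 min. Inhibition referenced to DMSO (1%) and EDTA (0.1 M) controls, curve-fitted.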
A general note: In TR-FRET formats the signal depends on donor and acceptor labels being close together.

The next assay has as its target T1, human IR (hIR) (Homo sapiens, UniProt P06213).
T1 construct: containing amino acid residues 979-1382 of human IR; made in house; host or cells: Sf9 cells (baculovirus), same process as hIGF1R
Kind of assay: TR-FRET kinase assay of purified hIR. Format: biochemical. Particulars: activated hIR 0.5 nM, 10 μM ATP, values given as pIC50 category.

Assay [1] has as its target T2, NIH-3T3 cells overexpressing human IR (Homo sapiens, UniProt P06213).
T2 construct: expressed in transfected cells; host or cells: NIH-3T3 (mouse fibroblasts)
Nature of the assay: IR cellular autophosphorylation (DELFIA). Format: cell-based. The conditions noted are these: 2 h compound, insulin 3 ug/ml for 15 minutes, IC50 category. In short, it runs like this:
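Receptor autophosphorylation measured by DELFIA, capturing IGF-1R or IRβ and detecting with europium anti-pTyr, reported as percent of IGF-1- or insulin-stimulated signal. Compounds (30 uM to 1.5 nM) added 2 h before ligand, then 15 min stimulation (IGF-1 30 ng/ml or insulin 3 ug/ml).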

ALK, sequence (Q9UM73 19-1620): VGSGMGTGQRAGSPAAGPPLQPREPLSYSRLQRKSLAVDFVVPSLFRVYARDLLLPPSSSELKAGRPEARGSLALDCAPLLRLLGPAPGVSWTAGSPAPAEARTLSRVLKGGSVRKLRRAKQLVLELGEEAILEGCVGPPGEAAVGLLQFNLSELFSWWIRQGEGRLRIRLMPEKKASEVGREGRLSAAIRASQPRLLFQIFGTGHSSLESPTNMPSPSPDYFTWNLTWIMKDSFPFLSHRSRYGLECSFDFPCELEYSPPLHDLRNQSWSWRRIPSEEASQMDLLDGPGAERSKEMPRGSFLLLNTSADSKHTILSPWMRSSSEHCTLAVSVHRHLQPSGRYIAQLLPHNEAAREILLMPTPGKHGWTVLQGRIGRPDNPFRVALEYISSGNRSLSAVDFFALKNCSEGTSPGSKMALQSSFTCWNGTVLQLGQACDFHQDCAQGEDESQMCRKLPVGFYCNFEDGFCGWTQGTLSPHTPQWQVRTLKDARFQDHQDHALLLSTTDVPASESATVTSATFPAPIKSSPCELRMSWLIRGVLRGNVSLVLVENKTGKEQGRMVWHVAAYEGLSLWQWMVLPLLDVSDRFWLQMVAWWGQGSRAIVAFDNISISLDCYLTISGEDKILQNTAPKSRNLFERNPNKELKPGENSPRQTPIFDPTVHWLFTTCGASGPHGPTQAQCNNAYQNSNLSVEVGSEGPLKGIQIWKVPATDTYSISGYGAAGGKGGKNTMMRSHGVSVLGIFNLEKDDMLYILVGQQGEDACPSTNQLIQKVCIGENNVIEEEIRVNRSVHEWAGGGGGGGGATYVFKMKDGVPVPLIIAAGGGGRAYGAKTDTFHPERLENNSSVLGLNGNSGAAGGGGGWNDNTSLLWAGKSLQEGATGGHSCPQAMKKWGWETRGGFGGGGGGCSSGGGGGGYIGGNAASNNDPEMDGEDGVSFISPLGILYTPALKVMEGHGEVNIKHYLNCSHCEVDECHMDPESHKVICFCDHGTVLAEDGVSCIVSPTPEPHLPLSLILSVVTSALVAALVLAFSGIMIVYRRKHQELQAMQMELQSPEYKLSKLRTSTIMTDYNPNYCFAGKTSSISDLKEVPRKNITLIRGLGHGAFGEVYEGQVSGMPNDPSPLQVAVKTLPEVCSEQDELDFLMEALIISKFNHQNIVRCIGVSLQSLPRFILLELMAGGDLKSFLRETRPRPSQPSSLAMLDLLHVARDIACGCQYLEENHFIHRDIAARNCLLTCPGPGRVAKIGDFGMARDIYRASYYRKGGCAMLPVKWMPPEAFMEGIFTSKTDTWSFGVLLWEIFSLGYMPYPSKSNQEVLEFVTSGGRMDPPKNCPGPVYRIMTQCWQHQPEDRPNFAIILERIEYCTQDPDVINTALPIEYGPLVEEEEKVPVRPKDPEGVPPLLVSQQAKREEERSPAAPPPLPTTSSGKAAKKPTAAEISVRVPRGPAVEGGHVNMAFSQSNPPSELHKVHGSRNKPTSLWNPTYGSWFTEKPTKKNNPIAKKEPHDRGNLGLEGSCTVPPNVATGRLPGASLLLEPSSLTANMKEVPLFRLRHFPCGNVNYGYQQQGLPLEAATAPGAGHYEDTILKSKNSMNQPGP
T2 sequence (P06213 28-1382): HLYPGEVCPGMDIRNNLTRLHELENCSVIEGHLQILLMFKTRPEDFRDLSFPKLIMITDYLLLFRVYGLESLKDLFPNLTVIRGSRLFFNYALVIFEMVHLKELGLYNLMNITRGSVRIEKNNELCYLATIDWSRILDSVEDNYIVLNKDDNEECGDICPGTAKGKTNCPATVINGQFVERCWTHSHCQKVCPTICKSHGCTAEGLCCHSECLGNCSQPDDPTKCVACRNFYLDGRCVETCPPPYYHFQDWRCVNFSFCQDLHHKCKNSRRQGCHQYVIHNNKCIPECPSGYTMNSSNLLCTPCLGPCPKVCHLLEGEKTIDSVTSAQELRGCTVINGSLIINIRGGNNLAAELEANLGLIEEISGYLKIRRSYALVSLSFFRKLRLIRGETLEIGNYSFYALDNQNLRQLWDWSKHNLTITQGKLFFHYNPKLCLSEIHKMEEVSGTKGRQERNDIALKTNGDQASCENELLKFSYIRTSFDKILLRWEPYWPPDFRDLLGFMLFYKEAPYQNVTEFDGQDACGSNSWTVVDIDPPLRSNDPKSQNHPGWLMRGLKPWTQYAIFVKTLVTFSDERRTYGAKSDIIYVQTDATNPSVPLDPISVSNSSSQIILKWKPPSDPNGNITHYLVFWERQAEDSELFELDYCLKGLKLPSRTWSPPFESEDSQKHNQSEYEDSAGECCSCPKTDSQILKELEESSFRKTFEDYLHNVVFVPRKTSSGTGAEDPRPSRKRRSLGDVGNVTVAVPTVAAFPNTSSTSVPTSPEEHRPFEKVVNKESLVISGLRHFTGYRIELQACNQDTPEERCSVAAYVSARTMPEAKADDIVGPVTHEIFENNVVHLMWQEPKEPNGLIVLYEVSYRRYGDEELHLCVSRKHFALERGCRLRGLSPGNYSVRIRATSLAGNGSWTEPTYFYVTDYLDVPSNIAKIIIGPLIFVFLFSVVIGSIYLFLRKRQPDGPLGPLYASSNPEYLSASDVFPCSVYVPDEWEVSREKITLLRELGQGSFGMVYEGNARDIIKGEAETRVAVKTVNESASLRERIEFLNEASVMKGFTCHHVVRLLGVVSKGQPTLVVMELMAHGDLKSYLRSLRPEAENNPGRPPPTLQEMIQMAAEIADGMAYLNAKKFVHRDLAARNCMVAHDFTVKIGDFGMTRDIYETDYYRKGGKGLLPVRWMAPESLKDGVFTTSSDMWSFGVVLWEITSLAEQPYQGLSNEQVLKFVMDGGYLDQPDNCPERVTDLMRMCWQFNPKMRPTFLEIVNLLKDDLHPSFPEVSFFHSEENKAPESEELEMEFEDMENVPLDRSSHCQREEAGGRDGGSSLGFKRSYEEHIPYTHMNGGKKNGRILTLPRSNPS
T1 sequence (P06213 979-1382): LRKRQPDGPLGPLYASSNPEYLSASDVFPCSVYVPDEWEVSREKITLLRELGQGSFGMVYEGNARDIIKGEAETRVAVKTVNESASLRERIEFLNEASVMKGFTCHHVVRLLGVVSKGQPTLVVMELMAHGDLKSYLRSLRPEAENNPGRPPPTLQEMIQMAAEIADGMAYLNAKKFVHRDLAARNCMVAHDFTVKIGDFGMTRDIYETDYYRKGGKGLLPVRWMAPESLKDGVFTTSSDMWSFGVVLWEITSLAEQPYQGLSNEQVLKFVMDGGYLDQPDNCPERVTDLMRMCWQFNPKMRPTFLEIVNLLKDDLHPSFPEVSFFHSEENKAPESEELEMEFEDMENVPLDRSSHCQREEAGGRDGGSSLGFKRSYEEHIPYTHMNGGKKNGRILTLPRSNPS

Turning to `COc1cc(N2CCN(C(C)C)CC2)ccc1Nc1nc(Nc2cc(F)cc(OC)c2C(N)=O)c2cc[nH]c2n1` [Example 88], the IC50 is 1.26 to 3.98 nM against ALK, 1.26 to 3.98 nM against human IR (hIR) and above 500 nM in assay [1].

For `COc1cc(N2CCCN(C)CC2)ccc1Nc1nc(Nc2cccc(F)c2C(N)=O)c2cc[nH]c2n1` [Example 209, 2-fluoro-6-[(2-{[4-(4-methylhexahydro-1H-1,4-diazepin-1-yl)-2-(methyloxy)phenyl]amino}-1H-pyrrolo[2,3-d]pyrimidin-4-yl)amino]benzamide], the IC50 at ALK is 0.251 to 1 nM; against human IR (hIR) it was 1.26 to 3.98 nM; in assay [1], 100 to 500 nM.

As for `COc1cc(C2CCN(C(C)C)CC2)ccc1Nc1nc(Nc2cc(F)c(F)cc2C(N)=O)c2cc[nH]c2n1` [Example 97, 4,5-difluoro-2-[(2-{[4-[1-(1-methylethyl)-4-piperidinyl]-2-(methyloxy)phenyl]amino}-1H-pyrrolo[2,3-d]pyrimidin-4-yl)amino]benzamide], the IC50 was 0.251 to 1 nM at ALK, 0.251 to 1 nM against human IR (hIR) and below 100 nM in assay [1].

As to `COc1cc(N2CCN(C(C)C)CC2)ccc1Nc1nc(Nc2ccc(F)c(F)c2C(N)=O)c2cc[nH]c2n1` [Example 94, 2,3-difluoro-6-[(2-{[4-[4-(1-methylethyl)-1-piperazinyl]-2-(methyloxy)phenyl]amino}-1H-pyrrolo[2,3-d]pyrimidin-4-yl)amino]benzamide], the IC50 was 0.251 to 1 nM against ALK, 1.26 to 3.98 nM against human IR (hIR) and 100 to 500 nM in assay [1].

As for `CCNC(=O)c1c(F)cccc1Nc1nc(Nc2cc3c(cc2OC)CCN3C(=O)CN(C)C)nc2[nH]ccc12` [Example 126, 2-[(2-{[1-(N,N-dimethylglycyl)-5-(methyloxy)-2,3-dihydro-1H-indol-6-yl]amino}-1H-pyrrolo[2,3-d]pyrimidin-4-yl)amino]-N-ethyl-6-fluorobenzamide], the values for the IC50 (at ALK; against human IR (hIR); in assay [1]) were 0.251 to 1 nM, 1.26 to 3.98 nM and 100 to 500 nM, respectively.

With `CNC(=O)c1c(F)cccc1Nc1nc(Nc2cc3c(cc2OC)CCN3C(=O)CN(C)C)nc2[nH]cc(F)c12` [Example 253, 2-[(2-{[1-(N,N-dimethylglycyl)-5-(methyloxy)-2,3-dihydro-1H-indol-6-yl]amino}-5-fluoro-1H-pyrrolo[2,3-d]pyrimidin-4-yl)amino]-6-fluoro-N-methylbenzamide], the IC50 at ALK was 0.251 to 1 nM; against human IR (hIR), 1.26 to 3.98 nM; in assay [1], 100 to 500 nM.

Regarding `CNC(=O)c1c(F)cccc1Nc1nc(Nc2cc3c(cc2OC)N(C(=O)CN(C)C)CC3)nc2[nH]ccc12` [Example 198, 2-[(2-{[1-(N,N-dimethylglycyl)-6-(methyloxy)-2,3-dihydro-1H-indol-5-yl]amino}-1H-pyrrolo[2,3-d]pyrimidin-4-yl)amino]-6-fluoro-N-methylbenzamide], the figures for the IC50 (against ALK; against human IR (hIR); in assay [1]) were 1.26 to 3.98 nM, 1.26 to 3.98 nM and above 500 nM, respectively.

For `COc1cc2c(cc1Nc1nc(Nc3cc(F)cc(F)c3C(N)=O)c3cc[nH]c3n1)CN(CCF)CC2` [Example 239, 2,4-difluoro-6-[(2-{[2-(2-fluoroethyl)-6-(methyloxy)-1,2,3,4-tetrahydro-7-isoquinolinyl]amino}-1H-pyrrolo[2,3-d]pyrimidin-4-yl)amino]benzamide], the IC50 was 1.26 to 3.98 nM on ALK, 1.26 to 3.98 nM at human IR (hIR) and above 500 nM in assay [1].

Regarding `COc1cc(N2CCOC[C@@H]2C)ccc1Nc1nc(Nc2ccc(F)cc2C(N)=O)c2cc[nH]c2n1` [Example 61, 5-fluoro-2-[(2-{[4-[(3S)-3-methyl-4-morpholinyl]-2-(methyloxy)phenyl]amino}-1H-pyrrolo[2,3-d]pyrimidin-4-yl)amino]benzamide], the IC50 was 1.26 to 3.98 nM against ALK, 0.251 to 1 nM on human IR (hIR) and below 100 nM in assay [1].

Take `CCC(C)N1CCc2cc(OC)c(Nc3nc(Nc4cccc(F)c4C(N)=O)c4cc[nH]c4n3)cc2C1` (stereo not drawn) [Example 237, 2-fluoro-6-[(2-{[6-(methyloxy)-2-(1-methylpropyl)-1,2,3,4-tetrahydro-7-isoquinolinyl]amino}-1H-pyrrolo[2,3-d]pyrimidin-4-yl)amino]benzamide]: the IC50 against ALK was 1.26 to 3.98 nM; at human IR (hIR) it was 1.26 to 3.98 nM; in assay [1], below 100 nM.

Consider `CCCN1CCCC(c2ccc(Nc3nc(Nc4cc(F)ccc4C(N)=O)c4cc[nH]c4n3)c(OC)c2)C1` (stereo not drawn) [Example 71, 4-fluoro-2-[(2-{[2-(methyloxy)-4-(1-propyl-3-piperidinyl)phenyl]amino}-1H-pyrrolo[2,3-d]pyrimidin-4-yl)amino]benzamide], for which the IC50 against ALK is 0.251 to 1 nM; against human IR (hIR), 0.251 to 1 nM; in assay [1] it was 100 to 500 nM.

In the case of `CNC(=O)c1c(F)cccc1Nc1nc(Nc2cc(NC(=O)CN(C)C)ccc2OC)nc2[nH]ccc12` [Example 245, 2-[(2-{[5-[(N,N-dimethylglycyl)amino]-2-(methyloxy)phenyl]amino}-1H-pyrrolo[2,3-d]pyrimidin-4-yl)amino]-6-fluoro-N-methylbenzamide], the IC50 at ALK is 0.251 to 1 nM; on human IR (hIR) it was 0.251 to 1 nM and 1.26 to 3.98 nM; in assay [1], above 500 nM.

Take `COc1cc2c(cc1Nc1nc(Nc3cc(F)cc(F)c3C(=O)NCc3ccc(F)cc3)c3cc[nH]c3n1)N(C(=O)CN(C)C)CC2` [Example 155, 2-[(2-{[1-(N,N-dimethylglycyl)-5-(methyloxy)-2,3-dihydro-1H-indol-6-yl]amino}-1H-pyrrolo[2,3-d]pyrimidin-4-yl)amino]-4,6-difluoro-N-[(4-fluorophenyl)methyl]benzamide]: the IC50 at ALK was 5.01 to 200 nM; against human IR (hIR), 1.26 to 3.98 nM; in assay [1], 100 to 500 nM.

Consider `CCCN1CCC(c2ccc(Nc3nc(Nc4cc(F)ccc4C(N)=O)c4cc[nH]c4n3)c(OC)c2)CC1` [Example 73, 4-fluoro-2-[(2-{[2-(methyloxy)-4-(1-propyl-4-piperidinyl)phenyl]amino}-1H-pyrrolo[2,3-d]pyrimidin-4-yl)amino]benzamide], for which the IC50 is 0.251 to 1 nM at ALK, 0.251 to 1 nM on human IR (hIR) and below 100 nM in assay [1].

With `COc1cc(N2CCN(C(C)=O)CC2)ccc1Nc1nc(Nc2cc(F)c(F)cc2C(N)=O)c2cc[nH]c2n1` [Example 103, 2-[(2-{[4-(4-acetyl-1-piperazinyl)-2-(methyloxy)phenyl]amino}-1H-pyrrolo[2,3-d]pyrimidin-4-yl)amino]-4,5-difluorobenzamide], the IC50 on ALK is 1.26 to 3.98 nM; against human IR (hIR), 0.251 to 1 nM; in assay [1], 100 to 500 nM.

`CNC(=O)c1c(Nc2nc(Nc3cc4c(cc3OC)CCCN4C(=O)CN(C)C)nc3[nH]ccc23)ccc(F)c1F` [Example 163, 6-[(2-{[1-(N,N-dimethylglycyl)-6-(methyloxy)-1,2,3,4-tetrahydro-7-quinolinyl]amino}-1H-pyrrolo[2,3-d]pyrimidin-4-yl)amino]-2,3-difluoro-N-methylbenzamide]: the IC50 at ALK was 1.26 to 3.98 nM; on human IR (hIR), 1.26 to 3.98 nM; in assay [1] it was below 100 nM.

Turning to `CNC(=O)c1c(F)cccc1Nc1nc(Nc2cc3c(cc2OC)CCCN3C(=O)CN(C)C)nc2[nH]ccc12` [Example 212, 2-[(2-{[1-(N,N-dimethylglycyl)-6-(methyloxy)-1,2,3,4-tetrahydro-7-quinolinyl]amino}-1H-pyrrolo[2,3-d]pyrimidin-4-yl)amino]-6-fluoro-N-methylbenzamide], the IC50 is 1.26 to 3.98 nM against ALK, 1.26 to 3.98 nM at human IR (hIR) and 100 to 500 nM in assay [1].

With `COc1cc(C2=CCN(C(C)C)CC2)ccc1Nc1nc(Nc2cc(F)ccc2C(N)=O)c2cc[nH]c2n1` [Example 72, 4-fluoro-2-[(2-{[4-[1-(1-methylethyl)-1,2,3,6-tetrahydro-4-pyridinyl]-2-(methyloxy)phenyl]amino}-1H-pyrrolo[2,3-d]pyrimidin-4-yl)amino]benzamide], the IC50 on ALK was 0.251 to 1 nM; against human IR (hIR), 0.251 to 1 nM; in assay [1] it was 100 to 500 nM.

On to `CCCN1CCC(COc2ccc(Nc3nc(Nc4cccc(F)c4C(N)=O)c4cc[nH]c4n3)c(OC)c2)CC1` [Example 206, 2-fluoro-6-({2-[(2-(methyloxy)-4-{[(1-propyl-4-piperidinyl)methyl]oxy}phenyl)amino]-1H-pyrrolo[2,3-d]pyrimidin-4-yl}amino)benzamide], for which the IC50 against ALK is 1.26 to 3.98 nM; against human IR (hIR), 1.26 to 3.98 nM; in assay [1], 100 to 500 nM.

`CCCNC(=O)c1c(F)cccc1Nc1nc(Nc2cc3c(cc2OC)CCN3C(=O)CN(C)C)nc2[nH]ccc12` [Example 156, 2-[(2-{[1-(N,N-dimethylglycyl)-5-(methyloxy)-2,3-dihydro-1H-indol-6-yl]amino}-1H-pyrrolo[2,3-d]pyrimidin-4-yl)amino]-6-fluoro-N-propylbenzamide]: the IC50 at ALK is 0.251 to 1 nM; against human IR (hIR), 1.26 to 3.98 nM; in assay [1], 100 to 500 nM.

Regarding `COc1cc2c(cc1Nc1nc(Nc3cc(F)cc(F)c3C(=O)NCC(C)C)c3cc[nH]c3n1)N(C(=O)CN(C)C)CC2` [Example 154, 2-[(2-{[1-(N,N-dimethylglycyl)-5-(methyloxy)-2,3-dihydro-1H-indol-6-yl]amino}-1H-pyrrolo[2,3-d]pyrimidin-4-yl)amino]-4,6-difluoro-N-(2-methylpropyl)benzamide], the IC50 on ALK is 1.26 to 3.98 nM; on human IR (hIR), 1.26 to 3.98 nM; in assay [1], above 500 nM.
